Source: ChEMBL document CHEMBL1909046, “DrugMatrix in vitro pharmacology data”

What was measured:
[1] = DRUGMATRIX: Potassium Channel [KATP] radioligand binding (ligand: [3H] Glyburide); assay type: cell membranes, Membrane; conditions: hit-t15; Not Active = under 50% inhibition at 10 µM
[2] = biological target: 5-hydroxytryptamine receptor 4 (Cavia porcellus, UniProt O70528); assay type: cell membranes, Dunkin-Hartley, Striatum, Membrane; also: in other assays of this panel Not Active means under 50% inhibition at 10 µM
[3] = DRUGMATRIX: Purinergic P2X radioligand binding (ligand: [3H] alpha, beta-Methylene-ATP); assay type: cell membranes, Oryctolagus cuniculus, New Zealand albino, Urinary bladder, Membrane; conditions: Not Active = under 50% inhibition at 10 µM
Melanocortin receptor 3 = Melanocortin receptor 3 (Homo sapiens, UniProt P41968); assay type: cell membranes, HEK293, Membrane; conditions: hek293; also: in other assays of this panel Not Active means under 50% inhibition at 10 µM
D(3) dopamine receptor = D(3) dopamine receptor (Homo sapiens, UniProt P35462); test: DRUGMATRIX: Dopamine D3 radioligand binding (ligand: [3H] Spiperone); assay type: cell membranes, CHO, Membrane; conditions: cho
Cytochrome P450 2C19 = Cytochrome P450 2C19 (Homo sapiens, UniProt P33261); conditions: bti-tn-5b1-4; also: in other assays of this panel Not Active means under 50% inhibition at 10 µM
Cytochrome P450 2E1 = Cytochrome P450 2E1 (Homo sapiens, UniProt P05181); conditions: bti-tn-5b1-4; also: in other assays of this panel Not Active means under 50% inhibition at 10 µM
Cytochrome P450 2E1, sequence (P05181 whole entry): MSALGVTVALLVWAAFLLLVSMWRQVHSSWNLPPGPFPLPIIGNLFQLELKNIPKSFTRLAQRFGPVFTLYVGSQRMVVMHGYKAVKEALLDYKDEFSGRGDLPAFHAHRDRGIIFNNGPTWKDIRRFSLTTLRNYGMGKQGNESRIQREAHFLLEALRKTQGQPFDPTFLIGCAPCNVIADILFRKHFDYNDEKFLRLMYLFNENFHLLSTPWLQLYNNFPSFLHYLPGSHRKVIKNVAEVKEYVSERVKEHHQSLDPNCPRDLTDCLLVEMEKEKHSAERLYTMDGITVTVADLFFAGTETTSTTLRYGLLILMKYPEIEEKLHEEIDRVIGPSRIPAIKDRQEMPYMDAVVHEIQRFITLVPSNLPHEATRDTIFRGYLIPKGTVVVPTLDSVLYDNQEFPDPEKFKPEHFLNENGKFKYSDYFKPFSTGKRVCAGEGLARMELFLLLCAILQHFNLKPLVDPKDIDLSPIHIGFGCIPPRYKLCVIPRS

5-hydroxytryptamine receptor 4, sequence (O70528 whole entry): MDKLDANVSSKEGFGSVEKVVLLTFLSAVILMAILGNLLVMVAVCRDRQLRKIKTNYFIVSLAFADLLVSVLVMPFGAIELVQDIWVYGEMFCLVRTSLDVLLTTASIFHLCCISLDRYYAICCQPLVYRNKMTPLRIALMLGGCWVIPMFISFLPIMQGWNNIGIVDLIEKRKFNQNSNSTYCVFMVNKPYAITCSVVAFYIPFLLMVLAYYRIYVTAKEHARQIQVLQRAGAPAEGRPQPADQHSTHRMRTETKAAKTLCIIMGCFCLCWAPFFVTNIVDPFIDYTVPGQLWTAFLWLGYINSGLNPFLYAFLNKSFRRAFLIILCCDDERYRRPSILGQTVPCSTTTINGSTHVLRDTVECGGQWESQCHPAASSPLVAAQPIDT
Melanocortin receptor 3, sequence (P41968 whole entry): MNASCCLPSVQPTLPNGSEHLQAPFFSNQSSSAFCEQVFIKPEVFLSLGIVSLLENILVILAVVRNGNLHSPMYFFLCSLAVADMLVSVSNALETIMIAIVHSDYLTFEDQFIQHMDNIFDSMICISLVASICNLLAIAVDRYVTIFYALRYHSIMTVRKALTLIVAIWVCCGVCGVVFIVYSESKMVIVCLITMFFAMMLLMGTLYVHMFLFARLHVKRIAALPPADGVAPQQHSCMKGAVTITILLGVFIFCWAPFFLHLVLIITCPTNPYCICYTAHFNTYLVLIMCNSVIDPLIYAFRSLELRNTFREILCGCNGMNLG
D(3) dopamine receptor, sequence (P35462 whole entry): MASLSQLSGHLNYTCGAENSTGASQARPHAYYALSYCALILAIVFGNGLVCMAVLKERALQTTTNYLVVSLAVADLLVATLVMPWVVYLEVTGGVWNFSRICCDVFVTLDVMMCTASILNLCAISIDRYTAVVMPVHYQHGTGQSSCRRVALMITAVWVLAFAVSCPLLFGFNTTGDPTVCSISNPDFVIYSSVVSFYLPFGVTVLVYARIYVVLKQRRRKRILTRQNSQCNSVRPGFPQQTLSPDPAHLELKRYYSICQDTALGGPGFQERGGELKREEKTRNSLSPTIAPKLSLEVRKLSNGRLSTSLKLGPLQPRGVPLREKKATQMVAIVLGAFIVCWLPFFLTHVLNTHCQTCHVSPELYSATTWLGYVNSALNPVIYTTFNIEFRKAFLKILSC
Cytochrome P450 2C19, sequence (P33261 whole entry): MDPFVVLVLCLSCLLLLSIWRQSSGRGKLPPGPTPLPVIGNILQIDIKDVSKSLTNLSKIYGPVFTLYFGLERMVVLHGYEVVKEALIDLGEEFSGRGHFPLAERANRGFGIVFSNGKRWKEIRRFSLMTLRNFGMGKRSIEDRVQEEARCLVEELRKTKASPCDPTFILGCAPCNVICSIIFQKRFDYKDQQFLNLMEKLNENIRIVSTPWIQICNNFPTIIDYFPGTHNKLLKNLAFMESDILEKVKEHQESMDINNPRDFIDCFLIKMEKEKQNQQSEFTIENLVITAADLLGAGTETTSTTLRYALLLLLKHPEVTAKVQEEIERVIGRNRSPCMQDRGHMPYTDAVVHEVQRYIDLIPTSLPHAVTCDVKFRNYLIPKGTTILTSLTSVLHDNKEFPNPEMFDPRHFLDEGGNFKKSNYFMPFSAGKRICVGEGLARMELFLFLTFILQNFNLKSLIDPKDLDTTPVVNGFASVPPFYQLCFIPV

OC[C@H]1OC2C3[C@@H](CO)OC(O[C@H]4[C@H](O)[C@@H](O)[C@@H](O[C@H]5[C@H](O)[C@@H](O)[C@@H](O[C@H]6[C@H](O)[C@@H](O)[C@@H](O[C@H]7[C@H](O)[C@@H](O)[C@@H](O[C@H]8[C@H](O)[C@@H](O)[C@@H](O[C@H]9[C@H](O)[C@@H](O)C(OC1[C@H](O)[C@H]2O)O[C@@H]9CO)O[C@@H]8CO)O[C@@H]7CO)O[C@@H]6CO)O[C@@H]5CO)O[C@@H]4CO)[C@H](O)[C@H]3O
Not Active: IC50 [1] | Ki [1] | IC50 [2] | IC50 [3] | Ki [3] | IC50 (Melanocortin receptor 3) | IC50 (D(3) dopamine receptor) | IC50 (Cytochrome P450 2C19) | Ki (Cytochrome P450 2C19) | IC50 (Cytochrome P450 2E1) | Ki (Cytochrome P450 2E1)

CO[C@H]1O[C@@H]2O[C@@]3(C)CC[C@H]4[C@H](C)CC[C@@H]([C@H]1C)[C@@]24OO3
Not Active: IC50 [1] | Ki [1] | IC50 [2] | IC50 [3] | Ki [3] | IC50 (Melanocortin receptor 3) | IC50 (D(3) dopamine receptor) | IC50 (Cytochrome P450 2C19) | Ki (Cytochrome P450 2C19) | IC50 (Cytochrome P450 2E1) | Ki (Cytochrome P450 2E1)

CC(C)Cn1cnc2c(N)nc3ccccc3c21 [IMIQUIMOD]
Not Active: IC50 [1] | Ki [1] | IC50 [2] | IC50 [3] | Ki [3] | IC50 (Melanocortin receptor 3) | IC50 (D(3) dopamine receptor) | IC50 (Cytochrome P450 2C19) | Ki (Cytochrome P450 2C19) | IC50 (Cytochrome P450 2E1) | Ki (Cytochrome P450 2E1)

COc1cc(NC(C)CCCN)c2ncccc2c1 (configuration not stated) [PRIMAQUINE]
Not Active: IC50 [1] | Ki [1] | IC50 [2] | IC50 [3] | Ki [3] | IC50 (Melanocortin receptor 3) | IC50 (D(3) dopamine receptor) | IC50 (Cytochrome P450 2C19) | Ki (Cytochrome P450 2C19) | IC50 (Cytochrome P450 2E1) | Ki (Cytochrome P450 2E1)

O=C(O)COC(=O)Cc1ccccc1Nc1c(Cl)cccc1Cl [ACECLOFENAC]
Not Active: IC50 [1] | Ki [1] | IC50 [2] | IC50 [3] | Ki [3] | IC50 (Melanocortin receptor 3) | IC50 (D(3) dopamine receptor) | IC50 (Cytochrome P450 2C19) | Ki (Cytochrome P450 2C19) | IC50 (Cytochrome P450 2E1) | Ki (Cytochrome P450 2E1)

C#C[C@]1(O)CC[C@H]2[C@@H]3CCC4=CC(=O)CC[C@@H]4[C@H]3CC[C@@]21C [NORETHINDRONE]
Not Active: IC50 [1] | Ki [1] | IC50 [2] | IC50 [3] | Ki [3] | IC50 (Melanocortin receptor 3) | IC50 (D(3) dopamine receptor) | IC50 (Cytochrome P450 2C19) | Ki (Cytochrome P450 2C19) | IC50 (Cytochrome P450 2E1) | Ki (Cytochrome P450 2E1)

CC(C)(C#N)c1cc(Cn2cncn2)cc(C(C)(C)C#N)c1 [ANASTROZOLE]
Not Active: IC50 [1] | Ki [1] | IC50 [2] | IC50 [3] | Ki [3] | IC50 (Melanocortin receptor 3) | IC50 (D(3) dopamine receptor) | IC50 (Cytochrome P450 2C19) | Ki (Cytochrome P450 2C19) | IC50 (Cytochrome P450 2E1) | Ki (Cytochrome P450 2E1)

Cc1cc(C(C)(C)C)c(O)c(C)c1CC1=NCCN1 [OXYMETAZOLINE]
Not Active: IC50 [1] | Ki [1] | IC50 [2] | IC50 [3] | Ki [3] | IC50 (Melanocortin receptor 3) | IC50 (D(3) dopamine receptor) | IC50 (Cytochrome P450 2C19) | Ki (Cytochrome P450 2C19) | IC50 (Cytochrome P450 2E1) | Ki (Cytochrome P450 2E1)

O=C(Nc1ccc(Cl)c(Cl)c1)c1cc(Cl)cc(Cl)c1O [3,3',4',5-TETRACHLOROSALICYLANILIDE]
Not Active: IC50 [1] | Ki [1] | IC50 [2] | IC50 [3] | Ki [3] | IC50 (Melanocortin receptor 3) | IC50 (D(3) dopamine receptor) | IC50 (Cytochrome P450 2C19) | Ki (Cytochrome P450 2C19) | IC50 (Cytochrome P450 2E1) | Ki (Cytochrome P450 2E1)

O=C(O)CO [GLYCOLIC ACID]
Not Active: IC50 [1] | Ki [1] | IC50 [2] | IC50 [3] | Ki [3] | IC50 (Melanocortin receptor 3) | IC50 (D(3) dopamine receptor) | IC50 (Cytochrome P450 2C19) | Ki (Cytochrome P450 2C19) | IC50 (Cytochrome P450 2E1) | Ki (Cytochrome P450 2E1)

COC(=O)C[C@](O)(CCC(C)(C)O)C(=O)O[C@@H]1C(OC)=C[C@]23CCCN2CCc2cc4c(cc2[C@H]13)OCO4 [HARRINGTONINE]
Not Active: IC50 [1] | Ki [1] | IC50 [2] | IC50 [3] | Ki [3] | IC50 (Melanocortin receptor 3) | IC50 (D(3) dopamine receptor) | IC50 (Cytochrome P450 2C19) | Ki (Cytochrome P450 2C19) | IC50 (Cytochrome P450 2E1) | Ki (Cytochrome P450 2E1)

CC(C)(c1ccc(O)cc1)c1ccc(O)cc1 [BISPHENOL A]
Not Active: IC50 [1] | Ki [1] | IC50 [2] | IC50 [3] | Ki [3] | IC50 (Melanocortin receptor 3) | IC50 (D(3) dopamine receptor) | IC50 (Cytochrome P450 2C19) | Ki (Cytochrome P450 2C19) | IC50 (Cytochrome P450 2E1) | Ki (Cytochrome P450 2E1)
